“Also recorded” adds a separate entry of the source.

Here are results for four molecules from US20140377379A1, “METHOD FOR PROGNOSING THE AGE-AT-ONSET OF HUNTINGTON'S DISEASE” (Institut National de la Sante et de la Recherche Medicale …, priority 2010, published 2014).

The test system of data set [1] is 19Q nematodes (normal polyQ). As to the kind of experiment: Touch test in 19Q control nematodes. The format is in vivo, C. elegans. The protocol:
(§1) The wild-type strain of C. elegans used was Bristol N2. Standard methods of culturing and handling worms were used. All strains were scored at 20° C. Touch tests, scoring of PLM cell processes, drug response assays and quantitative Real-Time PCR were performed as previously described (Parker et al. 2005 Nat Genet. 37:349-350). Western analysis was performed using standard protocols and htt fusion proteins detected with the GFP antibody ab6556 (Abcam). Mutations and transgenes used in this study were: aak-2(ok524), bar-1(ga80), cfz-2(ok 1201), cst-1(tm1900), ctl-2(ok1137), cwn-1(ok546), cwn-2(ok895), daf-2(e1370), daf-16(mgD150), dhc-1(or195), dnc-1(or 404), egl-20(n585), ftt-2(n4426), geln3[sir-2.1(+)], igls1[mec-3::htt57Q128::CFP;mec-7::YFP;lin-15(+)], igls245[mec-3::htt57Q19::CFP; mec-7::YFP; lin-15(+)]. lin-17(n671), lin-44(n1792), mig-1(e1787), pop-1(q624), rrf-3(pk1426), sir-2.1(ok434), sod-3(gk235) and ucp-4(ok 195). […]
(§2) Touch tests involved scoring for the response to light touch at the tail by using a fine hair. […] The responses were recorded for every animal such that, for example, 3 responses out of 10 at the tail is given as 30% responsiveness, and the mean values for responsiveness were retained for comparison of nematode groups.

The test system of data set [2] is 109Q/109Q striatal cells. Put plainly: Cell death assay in mutant htt striatal cells from HdhQ111 mice. Format: cell-based, mouse. The protocol:
Cell death assays for HdhQ111 mouse striatal cells expressing full-length htt with either wild-type (7Q/7Q) or mutant (109Q/109Q) polyglutamines were performed as previously described (Arango et al. 2006 Neurosci 26:4649-59). jetPEI was used for transfection with cDNA and jetSI-ENDO for siRNA assays as indicated by the manufacturer (PolyPlus Transfection). siRNA oligos were obtained from Clontech (β-catenin) and QIAGEN (SIRT1, SIRT2, SIRT3, UCP2 and UCP4). Mixes of 3-4 different siRNA sequences per gene (25 or 33 nM) were systematically tested for modulation of cell survival and siRNA target gene expression, followed by the evaluation of individual siRNA sequences at optimal concentration (25-100 nM). […] The siRNA sequences shown in figures are as it follows: β-catenin siRNA, 5′-[…]-3′ (100 nM) (SEQ ID NO:41); FoxO3a siRNA 5′-[…]-3′ (SEQ ID NO:42) (100 nM); SIRT1 siRNA, 5′-[…]-3′ (SEQ ID NO:43) (25 nM); SIRT2 siRNA 5′-[…]-3′ (SEQ ID NO:44) (25 nM); SIRT3 siRNA, 5′-[…]-3′ (SEQ ID NO:45) (25 nM); UCP2 siRNA, 5′-[…]-3′ (SEQ ID NO:46) (33 nM), and UCP4 siRNA sequences 5′-[…]-3′ (SEQ ID NO:47) (33 nM). The constructs encoding an active variant of SIRT1 (2 kb cDNA) lacking an internal segment in the N-terminus and full length FoxO3a were pcDNA3.1-sirt1-Flag and pcDNA3.1-FoxO3a-HA, respectively. Cells were subjected to DAPI staining and cell death was scored 48 hours after cell transfection by counting picnotic versus normal nuclei in DAPI- and JetSI-ENDO-positive cells. Cytoplasmic and nuclear proteins were extracted as previously described (Arango et al. 2006 Neurosci 26:4649-59), separated by SDS-PAGE and analyzed by Western blotting using the following primary antibodies: Mouse anti-SIRT1 (Upstate, 1:1000), mouse anti-SIRT2 (Santa Cruz, 1:100), rabbit anti-SIRT-3 (Abgent, 1:100), rabbit-anti-β-catenin (Cell Signaling, 1:5000), mouse anti-FoxO3a (Cell Signaling, 1:1000), goat-anti-UCP2 (Santa Cruz, dilution), rabbit-anti-UCP4 (Abcam, 1:25), mouse anti-actin (Invitrogen, 1:2000), anti-htt (4C8, Chemicon, 1:5000). Secondary antibodies were goat-anti-mouse IgG HRP-conjugated and goat-anti-rabbit IgG HRP-conjugated (Biorad). Proteins were detected using ECL+ and evaluated by densitometry. Quantitative Real-Time PCR experiments were performed as described in the Supporting Information/Materials and Methods. Chemicals were either purchased from Sigma (Resveratrol) and Calbiochem (B10, LiCl).

Data set [3] has as its system 128Q nematodes (expanded polyQ in touch receptor neurons). Put plainly: Touch test (response to light touch at the tail) in 128Q nematodes. Format: in vivo, C. elegans. Here is the method:
as §1, §2

The subject of data set [4] is PLM cells of 128Q animals. As to the kind of experiment: Scoring of PLM cell processes (axonal swelling). The format is in vivo, C. elegans. The settings on record: versus DMSO controls. Here is the method:
as §1, with “195). All strains were obtained from the C. elegans Genetics Center (University of Minnesota, Minneapolis) except for cst-1(tm1900) which was from the National Bioresource Project for the Nematode (Tokyo, Japan). For strain construction with polyQ transgenes, mutants were verified by visible phenotypes, PCR analysis for deletion mutants, sequencing for point mutations or a combination thereof.” for “195).”

The subject of data set [5] is UCP4 mRNA. As to the kind of experiment: Quantitative RT-PCR of UCP4 mRNA in striatal cells. Format: cell-based, mouse. The settings on record: for UCP4 mRNA levels: 109Q/109Q cells, qRT-PCR. Here is the method:
(§3) Cell death assays for HdhQ111 mouse striatal cells expressing full-length htt with either wild-type (7Q/7Q) or mutant (109Q/109Q) polyglutamines were performed as previously described (Arango et al. 2006 Neurosci 26:4649-59). jetPEI was used for transfection with cDNA and jetSI-ENDO for siRNA assays as indicated by the manufacturer (PolyPlus Transfection). siRNA oligos were obtained from Clontech (β-catenin) and QIAGEN (SIRT1, SIRT2, SIRT3, UCP2 and UCP4). Mixes of 3-4 different siRNA sequences per gene (25 or 33 nM) were systematically tested for modulation of cell survival and siRNA target gene expression, followed by the evaluation of individual siRNA sequences at optimal concentration (25-100 nM). […] Cells were subjected to DAPI staining and cell death was scored 48 hours after cell transfection by counting picnotic versus normal nuclei in DAPI- and JetSI-ENDO-positive cells. Cytoplasmic and nuclear proteins were extracted as previously described (Arango et al. 2006 Neurosci 26:4649-59), separated by SDS-PAGE and analyzed by Western blotting using the following primary antibodies: Mouse anti-SIRT1 (Upstate, 1:1000), mouse anti-SIRT2 (Santa Cruz, 1:100), rabbit anti-SIRT-3 (Abgent, 1:100), rabbit-anti-β-catenin (Cell Signaling, 1:5000), mouse anti-FoxO3a (Cell Signaling, 1:1000), goat-anti-UCP2 (Santa Cruz, dilution), rabbit-anti-UCP4 (Abcam, 1:25), mouse anti-actin (Invitrogen, 1:2000), anti-htt (4C8, Chemicon, 1:5000). […] Proteins were detected using ECL+ and evaluated by densitometry. Quantitative Real-Time PCR experiments were performed as described in the Supporting Information/Materials and Methods. […]
Quantitative RT-PCR was performed on RNA extracted from 109Q/109Q mouse striatal cells, transfected with the appropriate siRNAs, to assess gene silencing efficiency. […]

The test system of data set [6] is mutant htt. Put plainly: Western blot of mutant htt in 109Q/109Q cells. Format: cell-based, mouse. The protocol:
as §3, with “UCP4).” for “UCP4). Mixes of 3-4 different siRNA sequences per gene (25 or 33 nM) were systematically tested for modulation of cell survival and siRNA target gene expression, followed by the evaluation of individual siRNA sequences at optimal concentration (25-100 nM).”

The test system of data set [7] is 7Q/7Q striatal cells. Put plainly: Cell death assay in normal htt striatal cells. The format is cell-based, mouse. The settings on record: siRNA. The protocol: as §3, with “UCP4).” for “UCP4). Mixes of 3-4 different siRNA sequences per gene (25 or 33 nM) were systematically tested for modulation of cell survival and siRNA target gene expression, followed by the evaluation of individual siRNA sequences at optimal concentration (25-100 nM).”

Data set [8] relates to reactive oxygen species (ROS) levels in striatal cells. Put plainly: ROS levels in striatal cells. The format is cell-based, mouse.
Data set [9] concerns β-catenin. Put plainly: Western blot of β-catenin in 109Q/109Q cells. Format: cell-based, mouse. The protocol: as §3, with “UCP4).” for “UCP4). Mixes of 3-4 different siRNA sequences per gene (25 or 33 nM) were systematically tested for modulation of cell survival and siRNA target gene expression, followed by the evaluation of individual siRNA sequences at optimal concentration (25-100 nM).”

The subject of data set [10] is UCP2 mRNA. Put plainly: Quantitative RT-PCR of UCP2 mRNA in striatal cells. Format: cell-based, mouse. Here is the method: as §3, with “UCP4).” for “UCP4). Mixes of 3-4 different siRNA sequences per gene (25 or 33 nM) were systematically tested for modulation of cell survival and siRNA target gene expression, followed by the evaluation of individual siRNA sequences at optimal concentration (25-100 nM).”

Where [11] appears, read: siRNA 25-100 nM, cell death scored 48 hours after transfection, versus untreated.

Regarding `O=C1Nc2cc(Br)ccc2/C1=C1/Nc2ccccc2/C1=N\O` [BIO, 6-bromoindirubin-3′-oxime], in [1], the “effect on normal polyQ (19Q) controls, touch response” value is reported as “no effect on 19Q controls”. In addition, the “survival effect of BIO combined with β-catenin siRNA” value in data set [2] (BIO 0.5 μM + β-catenin siRNA, 109Q/109Q cells) is “lost by β-catenin siRNA”. In addition, the “survival of 109Q/109Q cells” value in data set [2] (BIO 0.5 μM, cell death induced by serum deprivation, versus DMSO controls) was “enhanced the survival of 109Q/109Q cells”. Also, the “neuronal dysfunction / expanded polyQ neurotoxicity (loss of response to touch)” value in data set [3] (128Q nematodes, versus DMSO or untreated […]Q controls) is given as “rescues expanded polyQ neurotoxicity; also recorded: reduced neuronal dysfunction in 1280 animals”. Also, the “BIO rescuing activity in 128Q animals mutant for FoxO network genes” value in data set [3] (128Q, mutants for daf-16, sir-2.1, bar-1 and ucp-4) was “lost and in a bar-1 dependent manner and no effect in mutants for sir-2.1, daf-16 and ucp-4”. For the same molecule, the “axonal swelling (AxSw)” value in data set [4] is reported as “reduced AxSw in PLM cells of 128Q animals; also recorded: reduced axonal swelling”.

For `[Cl-].[Li+]` [Lithium chloride], the “effect on normal polyQ (19Q) controls, touch response” value in data set [1] is recorded as “no effects on 19Q controls”.

For “UCP4 siRNA: siRNA 5′-GCCTATAGTATGTGCTTAATT-3′ (SEQ ID NO:47) (33 nM) (listed as DNA, chemistry not given here)”, the “UCP4 mRNA levels” value in data set [5] is “decreased UCP4 mRNA levels”. Further, the “survival of 109Q/109Q cells” value in data set [2] (setting [11]) was “increased the survival of 109Q/109Q cells”. In addition, the mutant htt expression result in [6] is reported as “unchanged; also recorded: no change in htt expression”.

For “β-catenin siRNA: siRNA 5′-GGCTTTTCCCAGTCCTTCATT-3′ (100 nM) (SEQ ID NO:41) (listed as DNA, chemistry not given here)”, in data set [5] (7Q/7Q cells), the UCP4 expression result is “No effect”. The “UCP4 mRNA levels” value in data set [5] is on record as “upregulated”. Also, the “survival of normal htt (7Q/7Q) cells” value in data set [7] is reported as “no effects in normal htt cells”. Besides, the “survival of 109Q/109Q cells” value in [2] (setting [11]) was “reduced the survival of mutant htt striatal cells; also recorded: decreased the survival of 109Q/109Q cells”. In addition, the ROS levels entry in data set [8] (mutant htt (109Q/109Q) striatal cells, versus untreated) is reported as “increased reactive oxygen species (ROS) levels in mutant htt striatal cells”; in data set [8] (normal htt (7Q/7Q) cells), “no effects in normal htt cells”. The β-catenin expression entry in [9] is “β-catenin was reduced”. The UCP2 expression entry in data set [10] (7Q/7Q cells) was “No effect”. Further, in data set [10] (109Q/109Q cells, qRT-PCR), the “UCP2 mRNA levels” value was “downregulated; also recorded: decreased UCP2 mRNA levels”. Besides, the mutant htt expression entry in data set [6] is recorded as “unchanged; also recorded: no change in htt expression”.
